The target of one assay is Tyk2 (Homo sapiens (Human), UniProt P29597). Nature of the assay: pSTAT4 Cell Assay (MSD, NK92 cells). The assay is classed as cell-based. The following applies: MSD.
Another assay deals with JAK2 (Homo sapiens (Human), UniProt O60674). Briefly: pSTAT5 Cell Assay (MSD, TF1 cells). The format is cell-based. The conditions noted are these: IL-3 stimulated, MSD. In short, it runs like this:
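Serum-starved TF1 cells were pretreated with compound for 1 h (10-point four-fold series from 10 μM), then stimulated with 30 ng/mL IL-3 for 15 min. pSTAT5 in lysates was measured by MSD immunoassay. IC50 came from a 4-parameter logistic fit.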

A further assay has as its target JAK1 (Homo sapiens (Human), UniProt P23458). Briefly: pSTAT3 Cell Assay (MSD, TF1 cells). The conditions noted are these: IL-6 stimulated, MSD. The format is cell-based. In short, it runs like this:
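IC50 values reflect 4-parameter logistic fits of normalized pSTAT3 signal, measured by MSD in lysed TF1 cells. Cells were serum-starved and treated with compound for 1 h (top concentration 10 μM) before a 15 min IL-6 challenge.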

The next assay concerns the target JH2 domain of human Tyk2 (Homo sapiens (Human), UniProt P29597). Briefly: JH2 Biochemical Assay (TR-FRET probe displacement). The assay is classed as binding. The conditions noted are these: JH2 domain of human Tyk2, TR-FRET probe displacement. (TR-FRET usually uses a lanthanide donor and a delayed reading to cut background.)

Drawing on patent US20260028365A1 (BIOGEN MA INC., priority 2022, published 2026), this text covers IC50 for 9 compounds.

Each structure is given as a SMILES string. pIC50: −log10 of the molar value.

Sequence of JAK2 (O60674 whole entry): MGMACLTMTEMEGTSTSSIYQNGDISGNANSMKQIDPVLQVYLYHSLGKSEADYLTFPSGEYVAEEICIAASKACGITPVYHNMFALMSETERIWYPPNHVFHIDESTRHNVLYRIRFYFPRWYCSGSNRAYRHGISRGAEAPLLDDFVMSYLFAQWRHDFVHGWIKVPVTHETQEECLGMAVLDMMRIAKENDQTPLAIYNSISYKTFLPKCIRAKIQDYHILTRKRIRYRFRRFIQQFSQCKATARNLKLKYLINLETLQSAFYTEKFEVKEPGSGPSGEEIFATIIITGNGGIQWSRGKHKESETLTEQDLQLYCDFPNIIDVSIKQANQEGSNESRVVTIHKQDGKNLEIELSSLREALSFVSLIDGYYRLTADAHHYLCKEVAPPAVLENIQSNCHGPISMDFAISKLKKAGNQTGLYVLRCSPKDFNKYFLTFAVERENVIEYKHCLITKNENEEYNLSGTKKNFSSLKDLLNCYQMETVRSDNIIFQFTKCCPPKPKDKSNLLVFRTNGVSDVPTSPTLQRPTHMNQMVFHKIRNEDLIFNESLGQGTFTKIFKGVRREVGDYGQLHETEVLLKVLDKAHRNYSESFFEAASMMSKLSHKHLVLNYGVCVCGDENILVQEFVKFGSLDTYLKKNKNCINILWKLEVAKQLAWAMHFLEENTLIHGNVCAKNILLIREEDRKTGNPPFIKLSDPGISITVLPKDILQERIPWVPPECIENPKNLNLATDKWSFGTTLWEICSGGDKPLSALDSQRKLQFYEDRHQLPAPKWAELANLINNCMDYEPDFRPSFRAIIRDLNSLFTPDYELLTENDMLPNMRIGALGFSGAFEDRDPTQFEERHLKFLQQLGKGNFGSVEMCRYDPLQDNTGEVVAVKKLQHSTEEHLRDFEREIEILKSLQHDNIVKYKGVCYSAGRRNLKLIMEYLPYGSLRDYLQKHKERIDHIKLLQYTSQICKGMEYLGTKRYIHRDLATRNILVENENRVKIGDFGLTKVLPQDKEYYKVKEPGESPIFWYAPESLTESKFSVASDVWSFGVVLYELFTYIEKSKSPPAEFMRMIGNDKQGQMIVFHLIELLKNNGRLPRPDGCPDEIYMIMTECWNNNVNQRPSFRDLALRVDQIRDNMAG
Sequence of JAK1 (P23458 whole entry): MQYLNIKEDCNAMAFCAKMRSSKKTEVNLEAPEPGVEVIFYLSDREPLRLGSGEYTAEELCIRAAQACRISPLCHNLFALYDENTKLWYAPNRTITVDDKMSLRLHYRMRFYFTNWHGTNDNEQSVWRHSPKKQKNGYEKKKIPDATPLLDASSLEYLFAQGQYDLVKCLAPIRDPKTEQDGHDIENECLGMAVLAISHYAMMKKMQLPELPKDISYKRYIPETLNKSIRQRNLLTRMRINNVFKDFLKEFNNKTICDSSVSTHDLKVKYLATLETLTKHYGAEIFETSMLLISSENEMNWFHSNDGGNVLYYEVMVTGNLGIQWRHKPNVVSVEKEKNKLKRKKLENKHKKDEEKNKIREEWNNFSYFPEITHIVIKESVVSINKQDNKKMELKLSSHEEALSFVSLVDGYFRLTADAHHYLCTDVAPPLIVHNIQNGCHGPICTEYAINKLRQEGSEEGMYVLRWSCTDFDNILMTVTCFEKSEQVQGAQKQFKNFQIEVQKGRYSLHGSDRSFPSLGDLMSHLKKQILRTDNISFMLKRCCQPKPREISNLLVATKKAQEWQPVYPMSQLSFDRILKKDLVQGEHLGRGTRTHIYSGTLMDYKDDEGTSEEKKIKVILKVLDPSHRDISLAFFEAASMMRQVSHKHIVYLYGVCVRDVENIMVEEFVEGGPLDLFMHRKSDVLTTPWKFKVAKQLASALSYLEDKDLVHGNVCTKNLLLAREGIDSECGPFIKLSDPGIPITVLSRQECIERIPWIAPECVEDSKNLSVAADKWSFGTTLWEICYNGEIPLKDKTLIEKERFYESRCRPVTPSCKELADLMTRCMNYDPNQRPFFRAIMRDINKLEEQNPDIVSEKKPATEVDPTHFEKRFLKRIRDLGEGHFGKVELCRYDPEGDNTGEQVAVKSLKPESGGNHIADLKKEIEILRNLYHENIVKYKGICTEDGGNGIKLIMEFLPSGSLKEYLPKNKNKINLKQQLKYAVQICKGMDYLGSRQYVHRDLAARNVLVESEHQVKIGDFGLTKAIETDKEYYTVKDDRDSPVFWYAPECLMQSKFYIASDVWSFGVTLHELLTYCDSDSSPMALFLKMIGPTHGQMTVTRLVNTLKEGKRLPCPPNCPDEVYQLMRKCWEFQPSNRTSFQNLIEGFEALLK
Sequence of Tyk2 (P29597 whole entry): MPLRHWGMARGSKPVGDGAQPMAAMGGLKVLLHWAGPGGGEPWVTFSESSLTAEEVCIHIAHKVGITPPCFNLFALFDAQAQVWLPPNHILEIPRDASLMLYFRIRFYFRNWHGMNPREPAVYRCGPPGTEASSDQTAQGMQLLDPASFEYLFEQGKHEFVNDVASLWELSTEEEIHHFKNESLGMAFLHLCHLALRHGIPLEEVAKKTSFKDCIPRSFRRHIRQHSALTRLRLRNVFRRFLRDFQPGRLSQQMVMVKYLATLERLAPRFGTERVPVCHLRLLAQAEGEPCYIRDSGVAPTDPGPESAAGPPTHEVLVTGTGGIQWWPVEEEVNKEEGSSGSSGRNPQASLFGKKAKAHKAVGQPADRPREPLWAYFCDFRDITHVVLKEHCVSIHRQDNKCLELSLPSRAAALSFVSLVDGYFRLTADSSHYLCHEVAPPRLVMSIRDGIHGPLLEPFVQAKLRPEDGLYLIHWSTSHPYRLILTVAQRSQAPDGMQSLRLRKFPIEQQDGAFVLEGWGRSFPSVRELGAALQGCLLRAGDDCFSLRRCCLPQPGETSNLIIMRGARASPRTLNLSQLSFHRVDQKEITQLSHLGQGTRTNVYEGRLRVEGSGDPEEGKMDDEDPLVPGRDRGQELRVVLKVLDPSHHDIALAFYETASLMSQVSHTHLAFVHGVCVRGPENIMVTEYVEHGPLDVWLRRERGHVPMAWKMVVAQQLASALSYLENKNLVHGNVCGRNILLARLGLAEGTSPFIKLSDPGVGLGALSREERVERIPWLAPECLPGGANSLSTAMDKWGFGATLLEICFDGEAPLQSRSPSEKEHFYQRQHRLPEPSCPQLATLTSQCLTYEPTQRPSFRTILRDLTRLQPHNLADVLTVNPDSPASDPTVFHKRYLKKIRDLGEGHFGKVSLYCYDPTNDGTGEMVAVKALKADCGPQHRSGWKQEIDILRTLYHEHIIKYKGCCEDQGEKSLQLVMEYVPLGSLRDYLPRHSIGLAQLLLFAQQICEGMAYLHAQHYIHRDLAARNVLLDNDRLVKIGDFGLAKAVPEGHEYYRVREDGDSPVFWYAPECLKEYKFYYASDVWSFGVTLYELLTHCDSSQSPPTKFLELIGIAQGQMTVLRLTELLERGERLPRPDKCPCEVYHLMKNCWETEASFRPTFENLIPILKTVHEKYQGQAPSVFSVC
Sequence of JH2 domain of human Tyk2 (P29597 575-876): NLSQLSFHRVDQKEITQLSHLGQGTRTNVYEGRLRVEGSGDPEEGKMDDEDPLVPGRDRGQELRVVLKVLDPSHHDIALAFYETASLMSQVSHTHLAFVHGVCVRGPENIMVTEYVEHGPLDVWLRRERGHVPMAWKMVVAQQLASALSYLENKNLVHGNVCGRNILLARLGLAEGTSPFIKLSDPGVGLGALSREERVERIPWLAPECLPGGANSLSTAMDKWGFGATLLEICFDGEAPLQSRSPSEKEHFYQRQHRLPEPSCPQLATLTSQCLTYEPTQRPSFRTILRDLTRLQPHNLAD

For the compound `CC(=O)Nc1cc(Nc2cc(C)nc(C(C)(F)F)n2)c(-c2ccn(C3CC3)n2)cn1` [Example 602, N-(5-(1-cyclopropyl-1H-pyrazol-3-yl)-4-((2-(1,1-difluoroethyl)-6-methylpyrimidin-4-yl)amino)pyridin-2-yl)acetamide], the pIC50 – broadly, the IC50 on a negative log10 scale, so that one unit is a factor of ten – against Tyk2 was no less than 8.00; against JAK2 it was no more than 6.00; against JAK1 it was no more than 6.00; on JH2 domain of human Tyk2, no less than 8.00.

As to `CC(=O)Nc1cc(Nc2cc(C)nc(C(C)(F)F)n2)c(-c2cnccn2)cn1` [Example 620, N-(4-((2-(1,1-difluoroethyl)-6-methylpyrimidin-4-yl)amino)-5-(pyrazin-2-yl)pyridin-2-yl)acetamide], the pIC50 against Tyk2 was 7.00 to 8.00; against JAK2, no more than 6.00; against JAK1, no more than 6.00; at JH2 domain of human Tyk2, no less than 8.00.

Consider `COCc1ccc(-c2cnc(NC(C)=O)cc2Nc2cc(C)nc(C(C)(F)F)n2)nc1` [Example 634, N-(4′-((2-(1,1-difluoroethyl)-6-methylpyrimidin-4-yl)amino)-5-(methoxymethyl)-[2,3′-bipyridin]-6′-yl)acetamide], for which the pIC50 was no less than 8.00 on Tyk2, no more than 6.00 against JAK2, no more than 6.00 at JAK1 and no less than 8.00 on JH2 domain of human Tyk2.

For `COCc1cccc(-c2cnc(NC(C)=O)cc2Nc2cc(C)nc(C(C)(F)F)n2)n1` [Example 636, N-(4′-((2-(1,1-difluoroethyl)-6-methylpyrimidin-4-yl)amino)-6-(methoxymethyl)-[2,3′-bipyridin]-6′-yl)acetamide], the pIC50 at Tyk2 is no less than 8.00; at JAK2, no more than 6.00; at JAK1, no more than 6.00; at JH2 domain of human Tyk2, no less than 8.00.

As for `CC(=O)Nc1cc(Nc2cc(C)nc(C(C)(F)F)n2)c(-c2ccc(CN(C)C)cn2)cn1` [Example 648, N-(4′-((2-(1,1-difluoroethyl)-6-methylpyrimidin-4-yl)amino)-5-((dimethylamino)methyl)-[2,3′-bipyridin]-6′-yl)acetamide], the pIC50 on Tyk2 was no less than 8.00; on JAK2, no more than 6.00; at JAK1 it was no more than 6.00; at JH2 domain of human Tyk2, no less than 8.00.

On to `CC(=O)Nc1cc(Nc2cc(C)nc(C(C)(F)F)n2)c(-c2ccc(N(C)C)cn2)cn1` [Example 652, N-(4′-((2-(1,1-difluoroethyl)-6-methylpyrimidin-4-yl)amino)-5-(dimethylamino)-[2,3′-bipyridin]-6′-yl)acetamide], for which the pIC50 was no less than 8.00 against Tyk2, no more than 6.00 at JAK2, no more than 6.00 against JAK1 and no less than 8.00 at JH2 domain of human Tyk2.

On to `CC(=O)Nc1cc(Nc2cc(C)nc(C(C)(F)F)n2)c(-c2ncc(C#N)cn2)cn1` [Example 655, N-(5-(5-cyanopyrimidin-2-yl)-4-((2-(1,1-difluoroethyl)-6-methylpyrimidin-4-yl)amino)pyridin-2-yl)acetamide], for which the negative logarithm of the IC50 (pIC50) at Tyk2 is 7.00 to 8.00; against JAK2, no more than 6.00; on JAK1, no more than 6.00; on JH2 domain of human Tyk2, no less than 8.00.

As for `CC(=O)Nc1cc(Nc2cc(C)nc(C(C)(F)F)n2)c(-c2ncc(OC(F)F)cn2)cn1` [Example 660, N-(4-((2-(1,1-difluoroethyl)-6-methylpyrimidin-4-yl)amino)-5-(5-(difluoromethoxy)pyrimidin-2-yl)pyridin-2-yl)acetamide], the pIC50 against Tyk2 was no less than 8.00; at JAK2, no more than 6.00; on JAK1, no more than 6.00; at JH2 domain of human Tyk2 it was no less than 8.00.

As to `COCc1nccc(-c2cnc(NC(C)=O)cc2Nc2cc(C)nc(C(C)(F)F)n2)n1` [Example 661, N-(4-((2-(1,1-difluoroethyl)-6-methylpyrimidin-4-yl)amino)-5-(2-(methoxymethyl)pyrimidin-4-yl)pyridin-2-yl)acetamide], the pIC50 against Tyk2 is no less than 8.00; at JAK2, no more than 6.00; against JAK1, no more than 6.00; at JH2 domain of human Tyk2, no less than 8.00.
